Results: patent publication US20250019368A1, “COMPOUND AND PRODUCTION METHOD THEREOF, POLYMERIZABLE COMPOSITION, RESIN COMPOSITION, POLYMER, CURED SUBSTANCE, AND LAMINATE” (FUJIFILM Corporation, priority 2022, published 2025)

Legend:
Type in all cases: physicochemical
[1] = Solubility in ethyl acetate, visual check for undissolved residue; details: 20.0 mg in 2 mL ethyl acetate, stirred at 40° C. for 10 minutes; no residue means solubility 1% by mass or more
Experimental: The solubility of each compound of Examples 1 to 3 and Comparative Examples 1 to 3 in an organic solvent was measured according to the following procedure.
20.0 mg of the compound was weighed and placed in a container, 2 mL of ethyl acetate was added thereto, and the mixture was stirred at 40° C. for 10 minutes. After the stirring, the presence or absence of undissolved residue of the compound was visually observed. The fact that no undissolved residue of the compound was observed means that the solubility of the compound was 1% by mass or more.

[2] = Absorption spectrum of the compound in chloroform solution (spectral characteristics); details: 5×10^−6 mol/L, 1 cm cell; for ε (molar absorption coefficient): at λmax
Experimental: An absorption spectrum of each of the compounds of Examples 1 to 3 and Comparative Examples 1 to 3 was measured according to the following procedure, and the maximal absorption wavelength ([…]), the molar absorption coefficient ([…]), and the width of the absorption spectrum at an absorbance corresponding to ½ of the maximum absorbance (that is, the half-width) were obtained.
Using chloroform as a solvent, a solution in which the compound was dissolved was prepared such that the concentration of the compound in the chloroform was 5×10^−6 mol/L (liter; the same applies hereinafter). Each prepared solution was put into a 1 cm cell, and an absorption spectrum was measured using a spectrophotometer [product name: U-4100, manufactured by Hitachi, Ltd.] as a measurement device.

[3] = Solubility in the organic solvents of the polymerizable composition; details: solvent (1) propylene glycol monomethyl ether acetate and solvent (2) cyclohexanone, polymerizable composition P4
Source text: A polymerizable composition P4 was obtained in the same manner as in the preparation of the polymerizable composition P1, except that, in the preparation of the polymerizable composition P1, the “exemplary compound 1-13” was changed to the “comparative compound R-3”.
A cured film E4 was obtained in the same manner as in the production of the cured film E1, except that, in the production of the cured film E1, the “polymerizable composition P1” was changed to the “polymerizable composition P4”. However, since the “comparative compound R-3” had extremely low solubility in the organic solvent [that is, the solvent (1) and the solvent (2)], the obtained photocured film D4 and cured film E4 were not films that could be evaluated for the spectral characteristics, so that the following evaluation tests were not performed.

Row | SMILES | Solubility in ethyl acetate (presence or absence of undissolved residue) [1] | Half-width (width of absorption spectrum at ½ of maximum absorbance) [2] | λmax (maximal absorption wavelength) [2] | ε (molar absorption coefficient) [2] | Solubility in the organic solvent [3]
1 | C=C(C)C(=O)OCCOC(=O)C1=C(C)/C(=C2\C(=O)C(c3[nH]c(C)c(CC)c3C)=C2O)N=C1C [Exemplary compound 1-13] | completely dissolved | 25 nm | 556 nm | 185,000 L/(mol · cm) | 
2 | C=Cc1ccc(Cn2c(C)c(CC)c(C)c2C2=C([O-])/C(=C3/C(C)=C(CC)C(C)=[N+]3Cc3ccc(C=C)cc3)C2=O)cc1 [Exemplary compound 1-30] | completely dissolved | 29 nm | 591 nm | 158,000 L/(mol · cm) | 
3 | CCC1=C(C)/C(=C2\C(=O)C(c3[nH]c(C)c(CC)c3C)=C2O)N=C1C [R-1] | not completely dissolved | 23 nm | 564 nm | 238,000 L/(mol · cm) | 
4 | C=C(C)C(=O)OCCN(CCOC(=O)C(=C)C)c1ccc(C2=C([O-])/C(=C3\C=CC(=[N+](CCOC(=O)C(=C)C)CCOC(=O)C(=C)C)C=C3NC(C)=O)C2=O)c(NC(C)=O)c1 [R-2] | not completely dissolved | 27 nm | 667 nm | 363,000 L/(mol · cm) | 
5 | CCN(CC)c1ccc(C2=C([O-])/C(=C3\C=CC(=[N+](CC)CC)C=C3NC(C)=O)C2=O)c(NC(C)=O)c1 [R-3] | not completely dissolved | 27 nm | 676 nm | 356,000 L/(mol · cm) | extremely low
